Legend:
Format in all cases: in vivo
[1] = system: ischemia-reperfusion model of AKI in mice (IR-AKI); assay: IR-AKI mice, pyridoxamine pre-treatment, renal fibrosis and injury markers 28 days after injury; details: day 28 after injury
Description: FIG. 1. Dose dependent effects of pre-treatment with pyridoxamine (PYR) at 500 and 1000 mg/kg/day on renal fibrosis 28 days after I/R-AKI. (A) Experimental model. Mice underwent unilateral renal pedicle clamping (U-IR) followed by contralateral nephrectomy 8 days after the initial surgery. All mice were pre-treated for 3 days with either vehicle control, or PYR 500 and 1000 mg/kg/day in drinking water supplemented with 200 mg PYR twice a day (or vehicle) by oral gavage for 3 days after each surgical procedure.
(§1) Treatment was continued for 28 days at which point mice were sacrificed and kidney harvested for analysis. (B-D) Expression of renal fibrosis markers Col1α1, α-SMA and Col3α1 mRNA relative to Gapdh mRNA control. (E) Quantification of Sirius red stained (% total area). (F) Representative images for Sirius red stained tissues (outer medulla; scale bars, 50 μm). Results expressed as mean +/−SEM, n=9-10 mice per group. Results only indicated if ANOVA p<0.05: *p<0.05, **p<0.01, ***p<0.001, #p<0.0001. Comparison with uninjured controls (no brackets), or vehicle treated mice (brackets).
FIG. 2. Dose dependent effects of pre-treatment with PYR at 500 and 1000 mg/kg/day on markers of renal injury 28 days after UR-AM. Effect of PYR on Kim1 (A) and NGAL (B) mRNA on day 28 after injury. Results expressed as mean +/−SEM, n=9-10 mice per group. Results only indicated if ANOVA p<0.05: *p<0.05, **p<0.01, ***p<0.001, #p<0.0001. Comparison with uninjured controls (no brackets), or vehicle treated mice (brackets).
(§2) Two doses of pyridoxamine were administered orally, 500 mg/kg/day and 1000 mg/kg/day to an experimental model of AM, the surgical, ischemia-reperfusion model of AKI in mice (IR-AKI) [Cianciolo Cosentino et al, 2013; Skrypnyk et al, 2013], a model of renal ischemia that has been used extensively to model ischemic injury associated with cardiac surgery acquired (CSA-AKI) [Thiele et al, 2015]. For the bulk of the studies pyridoxamine was administered for 3 days prior to the induction of AKI and was continued until completion of the studies. In some experiments, pyridoxamine was administered 24 hours after the induction of AM.
The injury models and treatments were administered as illustrated in FIG. 1A. Mice underwent unilateral renal pedicle clamping (LT-IR) followed by contralateral nephrectomy 8 days after the initial surgery. All mice were pre-treated for 3 days with either vehicle control, or PYR 500 and 1000 mg/kg/day in drinking water supplemented with 200 mg PYR twice a day (or vehicle) by oral gavage for 3 days after each surgical procedure. Treatment was continued for 28 days at which point mice were sacrificed and kidneys harvested for analysis.

[2] = system: ischemia-reperfusion model of AKI in mice (IR-AKI); assay: IR-AKI mice, pyridoxamine treatment started 24 hours after injury, renal fibrosis and injury markers at 28 days; details: 1000 mg/kg/day started 24 hours after injury, day 28
Description: as §1, with “FIG. 3. […] (A) Experimental model. Mice underwent U-IR followed by contralateral nephrectomy 8 days after the initial surgery. Mice were treated with PYR 1000 mg/kg/day starting 24 hours after the initial injury supplemented with 200 mg PYR twice a day (or vehicle) by oral gavage for 3 days after each surgical procedure. Treatment” for “Treatment”, “n=8-10/group.” for “n=9-10 mice per group.”, “Results” for “Results only”, “uninjured” for “uninjured controls”, “or delayed PYR treatment” for “treated mice”
FIG. 4. No effects of treatment with PYR at 1000 mg/kg/day started 24 hours after injury on markers of renal injury 28 days after I/R-AKI. (A, B) Expression of renal injury markers Kim1 and NGAL mRNA relative to Gapdh mRNA control on day 28 after injury. Results expressed as mean +/−SEM, n=8-10/group. Results indicated if ANOVA p<0.05: *p<0.05, **p<0.01, ***p<0.001, #p<0.0001. Comparison with uninjured (no brackets), or vehicle or delayed PYR treatment (brackets).
as §2
To determine whether delayed treatment with the high dose of pyridoxamine was effective in reducing post-injury fibrosis after IR-AKI, mice were treated with PYR 1000 mg/kg/day starting 24 hours after the initial injury supplemented with 200 mg PYR twice a day (or vehicle) by oral gavage for 3 days after each surgical procedure. Treatment was continued for 28 days at which point mice were sacrificed and kidney harvested for analysis (FIG. 3A).

[3] = system: ischemia-reperfusion model of AKI in mice (IR-AKI); assay: IR-AKI mice, pyridoxamine pre-treatment, renal injury and oxidative stress 3 days after injury; details: pre-treatment 1000 mg/kg/day, day 3 after injury, vs vehicle
Description: FIG. 5. Dose dependent effect of pre-treatment with PYR at 500 and 1000 mg/kg/day on renal injury 3 days after I/R-AKI. (A) Experimental model, Mice underwent U-IR and were pre-treated for 3 days with either vehicle control, PYR 500 mg/kg/day or PYR 1000 mg/kg/day in drinking water supplemented with 200 mg PYR twice a day (or vehicle) by oral gavage for 3 days after the surgical procedure. Mice were sacrificed and kidney harvested for analysis 3 days after the initial injury. (B, C) Renal Kim1 and NGAL mRNA expression 3 days after injury expressed as the ratio to Gapdh mRNA control. (D) Tubular injury score 3 days after injury in the OM (0-4, arbitrary units). (E) Representative images for PAS stained tissues (outer medulla; scale bars, 50 μm) F) Expression renal isofuran/isoprostane ratios after
PYR treatment with 500 and 1000 mg/kg/day 3 days after LI-IR. Results expressed as mean +/−SEM, n=9-10 mice per group. Results only indicated if ANOVA p<0.05: *p<0.05, **p<0.01, ***p<0.001, #p<0.0001. Comparison with uninjured (no brackets), or vehicle or PYR 500 mg/kalday treated mice (brackets).
as §2
To determine whether there was also a dose-dependent effect of pyridoxamine at 500 and 1000 mg/kg/day on early renal injury after IR-AKI, mice were sacrificed on day 3 after injury (FIG. 5A) to evaluate renal injury and renal oxidative stress levels.

[4] = Plasma pyridoxamine levels after I/R-AKI; details: mice with IR-AKI; for average pyridoxamine plasma levels: 1000 mg/kg/day
Description: FIG. 6. Plasma PYR levels after I/R-AKI. (A) Mice underwent U-IR and were pre-treated for 3 days with vehicle control, PYR 500 mg/kg/day or PYR 1000 mg/kg/day in drinking water supplemented with 200 mg PYR twice a day (or vehicle) by oral gavage for 3 days after the surgical procedure. Evaluation of PYR plasma levels on Day 3 after injury. (B) Mice underwent U-IR followed by contralateral nephrectomy 8 days after the initial surgery. All mice were pre-treated with vehicle control, PYR 500 mg/kg/day or 1000 mg/kg/day in drinking water supplemented with 200 mg PYR twice a day (or vehicle) by oral gavage for 3 days after each surgical procedure. Treatment was continued for 28 days at which point mice underwent venesection for analysis of plasma PYR levels. Evaluation of PYR plasma levels on Day 28 after injury. Results expressed as mean +/−SEM, n=9-10 mice per group. Results only indicated if ANOVA p<0.05: *p<0.05, **p<0.01, ***p<0.001, #p<0.0001. Comparison with uninjured controls (no brackets), or vehicle or PYR 500 mg/kg/day treated mice (brackets).

[5] = pre-treatment 500 and 1000 mg/kg/day oral, kidney, vs vehicle

Structure (SMILES): Cc1ncc(CO)c(CN)c1O [pyridoxamine]
- expression of pro-fibrotic gene Col1α1 mRNA [1, 5]: lowered expression
- expression of pro-fibrotic gene Col3α1 mRNA [1, 5]: lowered expression
- expression of pro-fibrotic gene αSMA mRNA [1, 5]: lowered expression
- level of fibrosis (Sirius red staining) [1, 5]: decreased level of fibrosis
- expression of renal injury marker Kim1 ([1]; pre-treatment 500 and 1000 mg/kg/day): lowered expression
- expression of injury marker Kim1 [2]: did not lower expression
- expression of injury marker NGAL [2]: did not lower expression
- expression of pro-fibrotic gene Col3α1 mRNA [2]: lowered expression
- expression of pro-fibrotic gene αSMA mRNA [2]: lowered expression
- post-injury fibrosis (Sirius red staining) [2]: decreased post-injury fibrosis
- expression of injury marker Kim1 ([2]; listed as PYR): No effects
- expression of injury marker NGAL ([2]; listed as PYR): No effects
- post-injury fibrosis (Sirius red staining) ([2]; listed as PYR): Beneficial effects
- histological tubular injury scores ([3]; outer medulla): reduction
- renal NGAL mRNA expression [3]: significant, dose-dependent decrease
- renal levels of oxidative stress marker isofuran-to-isoprostane ratio [3]: reduction
- average pyridoxamine plasma levels ([4]; day 3): ~6 µg/mL
- average pyridoxamine plasma levels ([4]; day 28): ~6 µg/mL
- plasma pyridoxamine levels, dose dependence ([4]; 500 vs 1000 mg/kg/day, days 3 and 28): dose-dependent increase
